# According to patent US12492195B2, “Preparation method for and crystal form of 3-aryloxy-3-five-membered heteroaryl-propylamine compound” (Zhangzhou Pien Tze Huang Pharmaceutical Co., Ltd., priority 2020, dated 2025):
# Like-named read-outs stand apart in the source and are kept apart here.
# Tests used:
# [1] = Hygroscopicity test by dynamic moisture absorption (DVS); format: physicochemical
# Description: Dynamic moisture adsorption (DVS) analysis: the instrument is a DVS Intrinsic produced by SMS company (Surface Measurement Systems); temperature, 25° C.; carrier gas, flow rate: nitrogen, 200 ml/min; mass change per unit time: 0.002%/min: relative humidity range: 0/oRH-95% RH.
# Dynamic moisture absorption (DVS) was used to test their hygroscopicity.
# [2] = Description: In the experiment, the initial dosage of crystal form A of the hydrochloride salt in H2O, SGF, and FaSSIF was about 20 mg/mL, and the initial dosage in FeSSIF was about 40 mg/mL. […] The samples were sealed and mounted on a rotating disk rotating at 25 rpm, and the rotating disk was placed in a 37° C. incubator. Samples were taken at time points 1, 4 and 24 hours of equilibration, and the filtrate was separated and tested concentration by HPLC.
# [3] = 24 hours
# Description: The crystal form A of the hydrochloride salt of the compound of formula Ic-1 was tested for equilibrium solubility in water for 24 hours at room temperature. The form A was dosed with about 300 mg/mL solid feed, and magnetic stirred (750 rpm) in water for 24 hours to obtain a suspension. After centrifugation, the supernatant was filtered through a 0.22-μm PTFE membrane and then tested by HPLC, and the obtained solid was tested by XRPD.
smiles,measurement,setting,value
CNCC[C@@H](Oc1cccc2ccoc12)c1cccs1 [Form A],change in crystal form (XRPD) before and after the DVS test,[1],no change in crystal form was observed
same,solubility,"[2]; FaSSIF pH 6.5, 37° C., 1 hour",20.2 mg/mL
same,solubility,"[2]; FaSSIF pH 6.5, 37° C., 4 hours",20.7 mg/mL
same,solubility,"[2]; FaSSIF pH 6.5, 37° C., 24 hours",20.8 mg/mL
same,solubility,"[2]; FeSSIF pH 5.0, 37° C., 1 hour",32.8 mg/mL
same,solubility,"[2]; FeSSIF pH 5.0, 37° C., 4 hours",36.8 mg/mL
same,solubility,"[2]; FeSSIF pH 5.0, 37° C., 24 hours",39.4 mg/mL
same,solubility,"[2]; SGF pH 1.9, 37° C., 1 hour",16.5 mg/mL
same,solubility,"[2]; SGF pH 1.9, 37° C., 4 hours",14.8 mg/mL
same,solubility,"[2]; SGF pH 1.9, 37° C., 24 hours",11.1 mg/mL
same,solubility,"[2]; Water, 37° C., 1 hour",16.7 mg/mL
same,solubility,"[2]; Water, 37° C., 4 hours",17.7 mg/mL
same,solubility,"[2]; Water, 37° C., 24 hours",17.3 mg/mL
same,solubility in water (concentration of free state),[3]; room temperature,21 ± 0.5 mg/mL
same,solubility in water converted to hydrochloride concentration,[3]; room temperature,237.3 mg/mL
same,solid crystal form after the equilibrium solubility test (XRPD),[3]; water,solid crystal form did not change
